These results are taken from patent EP1377579B1 (Aventis Pharmaceuticals Inc., priority 2000, dated 2002).

Each structure is given as a SMILES string. Where a name gives a salt, the structure may show the parent alone. Bounds are passed on as bounds.

As a reminder, the IC50 is the point on the concentration scale where inhibition reaches its midpoint.

For one test, the target named is cdk4/cyclin D1 (Homo sapiens, UniProt P11802). Nature of the test: Cyclin-dependent kinase assay, cdk4/cyclin D1. The test is classed as biochemical. The note with it: cyclin D1/cdk4; GST-pRb substrate, 10 µM ATP.
Chain of cdk4/cyclin D1 (P11802 whole entry): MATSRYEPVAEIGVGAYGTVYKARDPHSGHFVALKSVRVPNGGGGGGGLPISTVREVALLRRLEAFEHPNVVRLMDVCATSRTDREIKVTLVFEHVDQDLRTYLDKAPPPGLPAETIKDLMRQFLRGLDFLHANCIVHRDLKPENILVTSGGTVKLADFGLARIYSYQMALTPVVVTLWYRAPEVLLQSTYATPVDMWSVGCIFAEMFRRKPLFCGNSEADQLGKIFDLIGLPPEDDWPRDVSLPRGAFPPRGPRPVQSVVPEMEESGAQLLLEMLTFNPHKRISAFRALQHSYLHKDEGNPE
Chain of cdk4/cyclin D1 (P24385 whole entry partner): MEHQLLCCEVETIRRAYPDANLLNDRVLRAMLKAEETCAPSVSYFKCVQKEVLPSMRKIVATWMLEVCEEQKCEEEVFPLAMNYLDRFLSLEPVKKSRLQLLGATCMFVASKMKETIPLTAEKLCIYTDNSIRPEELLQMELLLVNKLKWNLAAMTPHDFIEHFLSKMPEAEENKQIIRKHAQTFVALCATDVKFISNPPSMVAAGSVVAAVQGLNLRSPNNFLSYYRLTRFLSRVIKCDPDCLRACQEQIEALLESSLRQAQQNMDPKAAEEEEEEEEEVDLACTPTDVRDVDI
For another test, the system named is PC-3. Nature of the test: In vitro proliferation assay (MTT), PC-3. The test is classed as cell-based, human. The note with it: Homo sapiens, PC-3, MTT assay; value (SD, n) where given; read-out: PC-3 Prostate (IC50 µM). On the procedure:
(§1) The proliferation of tumor cells can be measured using a tetrazolium salt-based assay known as the MTT (3-[4,5-Dimethylthiazol-2-yl]-2,5-diphenyltetrazolium bromide) assay. […] For the assay, the cell lines are plated onto 96 well plates at 1000 to 2500 cells/well (depending on the properties of the individual cell lines), left to attach and recover overnight. […] After 3 days, the cells are incubated with MTT dye (3-[4,5-Dimethylthiazol-2-yl]-2,5-diphenyltetrazolium bromide, Sigma # M5655, 10 mg/ml in Hank's Buffered Saline) to estimate the amount of live cells remaining vs. concentration for the test compounds. […] The MTT and culture medium is then removed from the cultures and 200 µl of DMSO is added to solubilize the dye from the cell layer. The absorbance at 570 nm is determined for each culture using a Spectramax plate reader (Molecular Devices).
(§2) IC50s were determined from the raw data from either the MTT or SRB assays.
(§3) All of the cell lines were obtained from American Type Tissue Collection, with the ATCC accession number in parentheticals. MCF-7 and MDA-MB-231 cells were grown in improved minimum essential medium (Biofluids) without phenol red, supplemented with 5 % fetal bovine serum, 0.01 mg/ml gentamicin and 3 mM L-glutamine.
A general note: Formazan colour is commonly taken as a measure of viable cells.

The next test addresses cdk2/cyclin E (Homo sapiens, UniProt P24941). Kind of test: Cyclin-dependent kinase assay, cdk2/cyclin E. The note with it: CDK2 IC50, nM, GST-pRb substrate, 10 µM ATP.
The next test addresses cdk1/cyclin B (Homo sapiens, UniProt P06493). Nature of the test: Cyclin-dependent kinase assay, cdk1/cyclin B. The note with it: CDK1 IC50, nM, Histone H1, 10 µM ATP.
A further test concerns MDA-MB-435. Nature of the test: In vitro proliferation assay (MTT), MDA-MB-435. The test is classed as cell-based, human. The note with it: Homo sapiens, MDA-MB-435, MTT assay; value (SD, n) where given; read-out: MB-435 Breast (IC50 µM). On the procedure:
as §1, §2, §3

Chain of cdk1/cyclin B (P06493 whole entry): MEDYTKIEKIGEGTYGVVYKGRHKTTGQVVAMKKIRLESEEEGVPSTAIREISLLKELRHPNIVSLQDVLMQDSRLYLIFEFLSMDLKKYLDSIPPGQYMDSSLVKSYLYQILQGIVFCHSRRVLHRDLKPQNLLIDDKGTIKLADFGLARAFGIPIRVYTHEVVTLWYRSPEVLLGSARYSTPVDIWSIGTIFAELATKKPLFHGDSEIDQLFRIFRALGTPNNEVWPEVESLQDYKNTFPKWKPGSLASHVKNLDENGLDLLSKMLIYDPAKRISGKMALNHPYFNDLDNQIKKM
Chain of cdk1/cyclin B (P14635 whole entry partner): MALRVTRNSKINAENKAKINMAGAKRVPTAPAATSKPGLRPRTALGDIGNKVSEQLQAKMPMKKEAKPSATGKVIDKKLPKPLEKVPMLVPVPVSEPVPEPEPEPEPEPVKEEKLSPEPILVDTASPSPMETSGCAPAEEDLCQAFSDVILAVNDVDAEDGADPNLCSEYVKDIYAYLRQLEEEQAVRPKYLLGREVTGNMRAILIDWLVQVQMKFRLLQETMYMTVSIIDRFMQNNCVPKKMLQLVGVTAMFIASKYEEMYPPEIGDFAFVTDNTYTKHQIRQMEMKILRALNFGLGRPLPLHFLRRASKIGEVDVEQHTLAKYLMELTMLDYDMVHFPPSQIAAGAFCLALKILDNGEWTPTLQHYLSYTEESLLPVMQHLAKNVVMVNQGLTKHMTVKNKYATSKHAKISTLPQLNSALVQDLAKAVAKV

Regarding `CC(=O)Nc1ccc(S(=O)(=O)N2CCC(Nc3nc(N[C@H]4CC[C@H](N)CC4)nc4c3ncn4C3CCCC3)CC2)cc1` [compound 115, trans-N-(4-{4-[2-(4-Amino-cyclohexylamino)-9-cyclopentyl-9H-purin-6-ylamino]-piperidine-1-sulfonyl}-phenyl)-acetamide dihydrochloride], the IC50 against cdk4/cyclin D1 is 14 nM; in the test with PC-3, 5.1 µM; at cdk2/cyclin E, 5 nM; against cdk1/cyclin B, 5 nM; with MDA-MB-435, 4.24 µM.
As to `Cc1ccccc1C(=O)N1CCC(Nc2nc(N[C@H]3CC[C@H](N)CC3)nc3c2ncn3C2CCCC2)CC1` [compound 70, trans-1-{4-[2-(4-Amino-cyclohexylamino)-9-cyclopentyl-9H-purin-6-ylamino]-piperidin-1-yl}-1-(2-methyl-phenyl)-methanone], the IC50 was 4510 nM against cdk4/cyclin D1; 4.4 µM in the test with PC-3; 430 nM against cdk2/cyclin E; 277 nM against cdk1/cyclin B; 4.6 µM in the test with MDA-MB-435.
For `COc1cccc(CC(=O)N2CCC(Nc3nc(N[C@H]4CC[C@H](N)CC4)nc4c3ncn4C3CCCC3)CC2)c1` [compound 38, trans-1-{4-[2-(4-Amino-cyclohexylamino)-9-cyclopentyl-9H-purin-6-ylamino]-piperidin-1-yl}-2-(3-methoxy-phenyl)-ethanone dihydrochloride], the IC50 stood at 703 nM against cdk4/cyclin D1; 1.83 µM in the test with PC-3; 66 nM against cdk2/cyclin E; 27 nM against cdk1/cyclin B; 1.28 µM in the test on MDA-MB-435.
As to `COc1ccc(S(=O)(=O)N2CCC(Nc3nc(N[C@H]4CC[C@H](N)CC4)nc4c3ncn4C3CCCC3)CC2)cc1` [compound 142, trans-N^2-(4-Amino-cyclohexyl)-9-cyclopentyl-N^6-[1-(4-methoxy-benzenesulfonyl)-piperidin-4-yl]-9H-purine-2,6-diamine dihydrochloride], the IC50 at cdk4/cyclin D1 is 47 nM; with PC-3, 0.61 µM; against cdk2/cyclin E, 9 nM; against cdk1/cyclin B it was < 5 nM; in the test with MDA-MB-435 it was 0.38 µM.
The corresponding values for `N[C@H]1CC[C@H](Nc2nc(NC3CCN(C(=O)CCC4CCCC4)CC3)c3ncn(C4CCCC4)c3n2)CC1` [compound 36, trans-1-{4-[2-(4-Amino-cyclohexylamino)-9-cyclopentyl-9H-purin-6-ylamino]-piperidin-1-yl}-3-cyclopentyl-propan-1-one dihydrochloride] are 697 nM, 0.39 µM, 79 nM, 45 nM and 0.39 µM.
For `CCOC(=O)c1cccc(NC(=O)N2CCC(Nc3nc(N[C@H]4CC[C@H](N)CC4)nc4c3ncn4C3CCCC3)CC2)c1` [compound 195, trans-3-[(1-{4-[2-(4-Amino-cyclohexylamino)-9-cyclopentyl-9H-purin-6-ylamino]-piperidin-1-yl} -methanoyl)-amino]-benzoic acid ethyl ester dihydrochloride] the same measures were 6 nM, 0.38 µM, 28 nM, 50 nM and 0.33 µM.
For `N[C@H]1CC[C@H](Nc2nc(NC3CCN(S(=O)(=O)/C=C/c4ccccc4)CC3)c3ncn(C4CCCC4)c3n2)CC1` [compound 118, trans-N^2-(4-Amino-cyclohexyl)-9-cyclopentyl-N^6-[1-((E)-2-phenyl-ethenesulfonyl)-piperidin-4-yl]-9H-purine-2,6-diamine dihydrochloride] the same measures were 38 nM, 0.38 µM, 38 nM, 22 nM and 0.28 µM.
With `CC(C)CC(=O)N1CCC(Nc2nc(N[C@H]3CC[C@H](N)CC3)nc3c2ncn3C2CCCC2)CC1` [compound 60, trans-1-{4-[2-(4-Amino-cyclohexylamino)-9-cyclopentyl-9H-purin-6-ylamino]-piperidin-1-yl}-3-methyl-butan-1-one dihydrochloride], the IC50 turned out to be 91 nM on cdk4/cyclin D1; 0.65 µM with PC-3; 37 nM on cdk2/cyclin E; 83 nM against cdk1/cyclin B; 0.69 µM in the test with MDA-MB-435.
The corresponding values for `N[C@H]1CC[C@H](Nc2nc(NC3CCN(S(=O)(=O)c4ccccc4[N+](=O)[O-])CC3)c3ncn(C4CCCC4)c3n2)CC1` [compound 143, trans-N^2-(4-Amino-cyclohexyl)-9-cyclopentyl-N^6-[1-(2-nitro-benzenesulfonyl)-piperidin-4-yl]-9H-purine-2,6-diamine dihydrochloride] are 154 nM, 0.45 µM, 28 nM, 7.5 nM and 0.61 µM.
For the molecule `N[C@H]1CC[C@H](Nc2nc(NC3CCN(C(=O)Nc4ccccc4C(F)(F)F)CC3)c3ncn(C4CCCC4)c3n2)CC1` [compound 158, trans-4-[2-(4-Amino-cyclohexylamino)-9-cyclopentyl-9H-purin-6-ylamino]-piperidine-1-carboxylic acid (2-trifluoromethyl-phenyl)-amide dihydrochloride], the IC50 against cdk4/cyclin D1 worked out at 825 nM; in the test on PC-3, 0.38 µM; against cdk2/cyclin E it was 87 nM; against cdk1/cyclin B it was 82 nM; in the test with MDA-MB-435, 0.29 µM.
As to `N[C@H]1CC[C@H](Nc2nc(NC3CCN(S(=O)(=O)c4ccc(Cl)c([N+](=O)[O-])c4)CC3)c3ncn(C4CCCC4)c3n2)CC1` [compound 140, trans-N^2-(4-Amino-cyclohexyl)-N^6-[1-(4-chloro-3-nitro-benzenesulfonyl)-piperidin-4-yl]-9-cyclopentyl-9H-purine-2,6-diamine dihydrochloride], the IC50 was 75 nM against cdk4/cyclin D1; 4.56 µM with PC-3; 41 nM on cdk2/cyclin E; 36 nM against cdk1/cyclin B; 2.76 µM in the test on MDA-MB-435.
For `N[C@H]1CC[C@H](Nc2nc(NC3CCN(C(=O)c4cccc(Br)c4)CC3)c3ncn(C4CCCC4)c3n2)CC1` [compound 71, trans-1-{4-[2-(4-Amino-cyclohexylamino)-9-cyclopentyl-9H-purin-6-ylamino]-piperidin-1-yl}-1-(3-bromophenyl)-methanone] the same measures were 698 nM, 0.61 µM, 91 nM, 53 nM and 0.64 µM.
Regarding `N[C@H]1CC[C@H](Nc2nc(NC3CCN(C(=O)c4cccnc4)CC3)c3ncn(C4CCCC4)c3n2)CC1` [compound 67, trans-1-{4-[2-(4-Amino-cyclohexylamino)-9-cyclopentyl-9H-purin-6-ylamino]-piperidin-1-yl}-1-pyridin-3-yl-methanone], the IC50 turned out to be 3150 nM against cdk4/cyclin D1; 38 µM in the test with PC-3; 441 nM against cdk2/cyclin E; 824 nM on cdk1/cyclin B; 50 µM in the test with MDA-MB-435.
For `N[C@H]1CC[C@H](Nc2nc(NC3CCN(C(=O)c4cccc5c4-c4ccccc4C5=O)CC3)c3ncn(C4CCCC4)c3n2)CC1` [compound 66, trans-4-(1-{4-[2-(4-Amino-cyclohexylamino)-9-cyclopentyl-9H-purin-6-ylamino]-piperidin-1-yl}-methanoyl)-fluoren-9-one] the same measures were 1720 nM, 1.93 µM, 325 nM, 234 nM and 1.66 µM.
